Literature values, collected in patent US20210213091A1, “LIPOPHILIC ACTIVE AGENT INFUSED TOBACCO LEAVES AND/OR TOBACCO MATERIALS AND METHODS OF USE THEREOF” (priority 2018, published 2021).

Structure (SMILES): CC1=CC[C@H]2C[C@@H]1C2(C)C [α-Pinene, (1S,5S)-2,6,6-Trimethylbicyclo[3.1.1]hept-2-ene]
- human pulmonary uptake: 60%
